Like-named read-outs stand apart in the source and are kept apart here. Where a SMILES comes first, the peptide text is derived from it. [ ]: non-standard residue; d: D form. The star is where a group is joined. PEG4 = NCCOCCOCCOCCOCCC(=O)O; Piperidide = C1CCN(*)CC1
Legend:
[1] = system: erythrocytes; type: cell-based; details: red cells of horse, 2 h
Procedure: Defibrinated horse blood (1 mL) was washed 3 times with 0.9% NaCl solution to remove plasma and then resuspended in 20 mL of 0.9% NaCl solution to obtain a red blood cell (RBC) suspension. Aliquots of the RBC suspension (100 µL) were incubated with 100 µL of compound solutions at concentrations ranging from 100 to 1.5625 µM (twofold serial dilution) for 2 h at 37 °C. RBCs treated with 0.9% NaCl solution and 1% Triton X‐100 solution served as blank and positive controls, respectively. Subsequently, the samples were centrifuged at 900 × g for 10 min, and the absorbance of the supernatant was measured at 570 nm.
The hemolysis ratio was calculated as (2) Hemolysis%=ODSamplegroup−ODBlank/ODPositivegroup−ODBlank×100%

[2] = system: MRC-5 normal cell line; type: cell-based; details: 24 h
Procedure: (§1) MTT assay was conducted as previously described.^[ [44] ^] Tumor cell lines (NCI‐H460, NCI‐H838, HT‐1080, MCF‐7, PC‐3, U‐251‐MG, and U‐87 MG) were seeded in 96‐well plates at a density of 8000 cells per well in a volume of 100 µL and cultured for 24 h. Normal cell lines (HaCaT, HMEC‐1, MRC‐5, and HEK‐293) were seeded in 96‐well plates at a density of 10 000 cells per well in a volume of 100 µL and cultured for 48 h. After that, only tumor cell lines were starved with 100 µL of SFM for a further 4–6 h. Subsequently, cells were treated with 100 µL of compound solutions with different concentrations for 24 h. Cells treated with SFM and 0.5% DMSO in SFM served as blank control and growth control, respectively. Ten µL of MTT solution (5 mg mL^−1) was added to each well, followed by an additional incubation period of 2 h for tumor cells and 4 h for normal cells. Finally, the solvent in each well was swapped with 100 µL of DMSO to dissolve the formazan crystals. The absorbance was measured by the plate reader at 570 nm.
(§2) The cell viability was calculated (1) Cellviability%=ODSamplegroup−ODBlank/ODGrowthgroup−ODBlank×100%

[3] = system: HMEC-1 normal cell line; type: cell-based; details: 24 h
Procedure: as §1, §2

[4] = system: HaCaT normal cell line; type: cell-based; details: 24 h
Procedure: as §1, §2

[5] = Compound remaining evaluation in human serum; type: in vitro ADME; details: 50% human serum (50 µL 3 mM compound + 50 µL serum), 37 °C, 24 h, ethanol precipitation, analytical HPLC 214 nm peak area vs 0 h, n = 2; read-out: remaining ratio in human serum after 24 h
Procedure: Compound solutions (50 µL, 3 mM) were mixed with human serum (50 µL) and incubated for 0, 2, 4, 6, 12, and 24 h at 37 °C. Ethanol (250 µL) was added to precipitate serum proteins, and the samples were centrifuged at 14 000 × g for 20 min at 4 °C. Subsequently, 150 µL of supernatant of each sample was analyzed with analytical HPLC and ESI‐MS/MS. HPLC condition: gradient: 100% solution A to 0% solution A from 0 to 60 min; flow rate: 1 mL min^−1; detector wavelength: 214 nm. Each sample had two replicates.
The compound remaining ratio was calculated as (7) Compoundremaining%=CompoundPeakAreanotat0h/CompoundPeakAreaat0h×100%

[6] = system: Galleria mellonella larvae; assay: In vivo safety evaluation in G. mellonella larvae
Procedure: G. mellonella larvae (Livefoods Direct Ltd., Yorkshire, UK) were used to assess the in vivo safety of peptides. Experiments were conducted on larvae (250 ± 25 mg) incubated at 37 °C. Ten µL of compound 270 solutions with the final concentrations of 50, 80, and 120 µM were injected into the hemolymph via the second pair of prolegs (counting from the head). Control groups were injected with an equal volume of PBS. Larval survival and body weight were monitored every 1 day for a total of 5 days.

[7] = system: H460 cell line; type: cell-based; details: 24 h
Procedure: as §1
The antimicrobial stability evaluation was determined in the presence of physiological concentrations of serum. Twenty five µL of compound solutions with the concentration of 3 mM and 25 µL of human serum were mixed. The mixture was incubated for 0, 2, 4, 6, 12, 24 h at 37 °C and then incubated for 15 min at 60 °C to inactivate the enzymes. […]

[8] = system: H460 cell line; assay: cells; type: cell-based; details: 24 h
Procedure: as §1, §2

[9] = system: HEK-293 normal cell line; assay: cells; type: cell-based; details: 24 h
Procedure: as §1, §2

[10] = system: 5-Fluorouracil-resistance H460 cell line; type: cell-based; details: 24 h
Procedure: as §1
(§3) Wild type H460 cells were cultured in a T‐75 flask and exposed to 30 µM of cisplatin. Cells were passed when the confluency reached 90%. The IC50 value of cisplatin on this cell line was evaluated every two passages. After the IC50 value was higher than 500 µM, the cultured medium was changed to normal CGM, and the cell line was cultured for another three passages. The IC50 value was evaluated again to make sure the resistance was stable. The other three resistance cell lines establishment process was similar. […] Parental NCI‐H460 cells were exposed to 10 µM 5‐fluorouracil, 2.5 µM paclitaxel, or 2.5 µM etoposide to generate 5‐fluorouracil‐resistant, paclitaxel‐resistant, and etoposide‐resistant cell lines, respectively.

[11] = system: Cisplatin-resistance H460 cell line; type: cell-based; details: 24 h
Procedure: as §1, §3

[12] = system: Paclitaxel-resistance (DR-PTX) H460 cell line; type: cell-based; details: 24 h
Procedure: as §1, §3

[13] = system: Etoposide-resistance (DR-EPT) H460 cell line; type: cell-based; details: 24 h
Procedure: as §1, §3

[14] = system: HT-1080 cell line; type: cell-based; details: 24 h
Procedure: as §1, §2

[15] = system: H838 cell line; type: cell-based; details: 24 h
Procedure: as §1, §2

[16] = system: matrix-metalloproteinase (MMP); assay: MMP cleavage detection in H460 condition medium; type: in vitro ADME; details: 50 µM in condition or control medium, HPLC and MS, n = 2
Procedure: NCI‐H460 cells were seeded in 48‐well plates at a density of 24 000 cells per well in a volume of 300 µL and cultured for 24 h. Afterward, 300 µL of SFM was added to each well followed by a 10 h incubation. Next, the supernatant of each well was transferred to 1.5 mL tubes. The supernatant of control group was incubated at 60 °C for 30 min (control medium) while the supernatant of dosing group (condition medium) had no incubation. […] Last, 150 µL of samples were analyzed by analytical HPLC and ESI‐MS. HPLC condition: gradient: 100% solution A from 0 to 5 min and 100% solution A to 0% solution A from 5 to 65 min; flow rate: 1 mL min^−1; detector wavelength: 214 nm. Each sample had two replicates.

| SMILES | HC10 (concentration causing 10% of erythrocytes lysis) [1] | IC50 [2] | IC50 [3] | IC50 [4] | IC50 [7] | IC50 [9] | IC50 [10] | IC50 [11] | IC50 [12] | IC50 [13] | IC50 [14] | IC50 [15] | further results |
| --- | --- | --- | --- | --- | --- | --- | --- | --- | --- | --- | --- | --- | --- |
| CC[C@H](C)[C@H](NC(=O)[C@H](CCCCN)NC(=O)[C@@H]1CCCN1C(=O)[C@H](CC(C)C)NC(=O)[C@@H](NC(=O)[C@H](CO)NC(=O)[C@H](CCC(=O)N1CCCCC1)NC(=O)[C@H](CC(C)C)NC(=O)[C@H](CC(=O)O)NC(=O)[C@H](CC(=O)O)NC(=O)[C@H](Cc1ccccc1)NC(=O)[C@@H](NC(=O)[C@H](CCCCN)NC(=O)[C@@H]1CCCN1C(=O)[C@H](Cc1ccccc1)NC(=O)[C@H](Cc1ccccc1)NC(=O)[C@H](CCCCN)NC(=O)[C@H](C)N)[C@@H](C)CC)[C@@H](C)CC)C(=O)N[C@@H](CC(C)C)C(=O)NCC(=O)N1CCC[C@H]1C(=O)N[C@@H](CC(C)C)C(=O)NCC(=O)N[C@@H](CC(C)C)C(=O)N[C@@H](C)C(=O)NCC(=O)NCCOCCOCCOCCOCCC(=O)NCCOCCOCCOCCOCCC(=O)NCCOCCOCCOCCOCCC(=O)NCCOCCOCCOCCOCCC(=O)NCCOCCOCCOCCOCCC(=O)NCCOCCOCCOCCOCCC(N)=O [compound 270] (H-AKFFPKIFDDLE(Piperidide)SILPKILGPLGLAG[PEG4][PEG4][PEG4][PEG4][PEG4][PEG4]-NH2) | >100 µM | > 100 µM | > 100 µM | > 100 µM | 53.6 ± 2.04 µM | > 100 µM | 56.44 ± 0.25 µM | 54.7 ± 3.28 µM | 35.3 ± 1.83 µM | 28.1 ± 1.42 µM |  |  | remaining at 24 h, 1.5 mM [5]: ~100%; larval survival after 5 days, 50 µM ([6]; 10 µL injected into hemolymph, 50 µM, 37 °C, day 5): 77.8%; larval survival after 5 days, 80 µM ([6]; 10 µL injected into hemolymph, 80 µM, 37 °C, day 5): 88.9%; larval survival after 5 days, 120 µM ([6]; 10 µL injected into hemolymph, 120 µM, 37 °C, day 5): 77.8%; melanization of larvae ([6]; 50, 80 or 120 µM, 5 days): No melanization; IC95 value, H460 [8]: ≈ 55 µM; inhibition of HEK-293 cells at 100 µM [9]; 100: 40% |
| CC[C@H](C)[C@H](NC(=O)[C@H](CCCCN)NC(=O)[C@@H]1CCCN1C(=O)[C@H](CC(C)C)NC(=O)[C@@H](NC(=O)[C@H](CO)NC(=O)[C@H](CCC(=O)N1CCCCC1)NC(=O)[C@H](CC(C)C)NC(=O)[C@H](CC(=O)O)NC(=O)[C@H](CC(=O)O)NC(=O)[C@H](Cc1ccccc1)NC(=O)[C@@H](NC(=O)[C@H](CCCCN)NC(=O)[C@@H]1CCCN1C(=O)[C@H](Cc1ccccc1)NC(=O)[C@@H](N)Cc1ccccc1)[C@@H](C)CC)[C@@H](C)CC)C(=O)N[C@@H](CC(C)C)C(N)=O [174-3] (H-FFPKIFDDLE(Piperidide)SILPKIL-NH2) | 51.52 µM | 95.8 µM | 52.9 ± 7.31 µM | 87 µM | 23.7 ± 1.03 µM | 32.6 µM | 28.9 ± 3.53 µM | 29.2 ± 2.29 µM | 24.2 ± 2.13 µM | 17.7 ± 2.86 µM | 57.6 ± 8.46 µM | 39.5 µM |  |
| CC[C@H](C)[C@H](NC(=O)[C@H](CCCCN)NC(=O)[C@@H]1CCCN1C(=O)[C@H](CC(C)C)NC(=O)[C@@H](NC(=O)[C@H](CO)NC(=O)[C@H](CCC(=O)N1CCCCC1)NC(=O)[C@H](CC(C)C)NC(=O)[C@H](CC(=O)O)NC(=O)[C@H](CC(=O)O)NC(=O)[C@H](Cc1ccccc1)NC(=O)[C@@H](NC(=O)[C@H](CCCCN)NC(=O)[C@@H]1CCCN1C(=O)[C@H](Cc1ccccc1)NC(=O)[C@@H](N)Cc1ccccc1)[C@@H](C)CC)[C@@H](C)CC)C(=O)N[C@@H](CC(C)C)C(=O)NCC(=O)N1CCC[C@H]1C(=O)N[C@@H](CC(C)C)C(=O)NCC(=O)N[C@@H](CC(C)C)C(=O)N[C@@H](C)C(=O)NCC(=O)NCCOCCOCCOCCOCCC(=O)NCCOCCOCCOCCOCCC(=O)NCCOCCOCCOCCOCCC(=O)NCCOCCOCCOCCOCCC(N)=O [compound 209] (H-FFPKIFDDLE(Piperidide)SILPKILGPLGLAG[PEG4][PEG4][PEG4][PEG4]-NH2) |  | > 100 µM | > 100 µM | > 100 µM |  | 98.6 µM | 84.5 ± 4.55 µM | 94.3 µM | 97.8 µM | > 100 µM | 86.8 ± 49.1 µM | 84.5 ± 5.91 µM | MMP-cleaved product detection / integrity in H460 medium [16]: remained intact; IC50 [8]: 53.4 µM |
